Here are results for five molecules from publication PMC5578999, “Novel quinolone chalcones targeting colchicine-binding pocket kill multidrug-resistant cancer cells by inhibiting tubulin activity and MRP1 function” (Scientific Reports, 2017).

SMILES strings stand for the structures.

One data set has as its system MDA-MB-231. The data set can be described thus: SRB cell viability and combinational index. Format: cell-based. The conditions noted are these: Homo sapiens; MDA-MB-231 cells. Here is the method:
(§1) Dr. Susan Cole (Queen’s Universit y, Kingston, Ontario, Canada). The pacl itaxel-resistant MDA-MB-231TaxR cell line was generated in house b y culturing MDA-MB-231 cells (purchased from ATCC and authen ticated ) in the gradual l y incr easi ng con centr ations of pacl itax el until the concentration reached to 100 nM. Cell line authentication was carried out by Genetica DNA Laboratories (Burlington, NC) using a short tandem repeat (STR) profiling method (March 2015; […]
(§2) Cell viability, com binational i ndex and cell synchronization
(§3) Cell viability and proliferation were ex amined using a s ulforhodamine B (SRB) assa y as described previousl y (Hu et al., 2008). IC 50 values were calculat ed from si gmoidal dose-response cu rves gen erat ed b y at least two indepen dent ex periments , with each quadruplicate samples, using GraphPad Prism v.5.04 software (GraphPad Software, Inc, La J olla, CA). […]
737/ABT-199 w ere us ed at or below IC 50 . The combinational index (CI) w as calculat ed as previousl y described (Chou, 2006). […]
(§4) (Romero and Lee, 2008), and the cells were r eleas ed in to complete medium in the absence (sham) or presence of compound(s). […]

The target of data set [1] is T1, MRP1 (Homo sapiens, UniProt P33527).
T1 construct: expressed in transfected cells; host or cells: HEK293-MRP1 (gift of Dr. Susan Cole)
T1 sequence (P33527 whole entry): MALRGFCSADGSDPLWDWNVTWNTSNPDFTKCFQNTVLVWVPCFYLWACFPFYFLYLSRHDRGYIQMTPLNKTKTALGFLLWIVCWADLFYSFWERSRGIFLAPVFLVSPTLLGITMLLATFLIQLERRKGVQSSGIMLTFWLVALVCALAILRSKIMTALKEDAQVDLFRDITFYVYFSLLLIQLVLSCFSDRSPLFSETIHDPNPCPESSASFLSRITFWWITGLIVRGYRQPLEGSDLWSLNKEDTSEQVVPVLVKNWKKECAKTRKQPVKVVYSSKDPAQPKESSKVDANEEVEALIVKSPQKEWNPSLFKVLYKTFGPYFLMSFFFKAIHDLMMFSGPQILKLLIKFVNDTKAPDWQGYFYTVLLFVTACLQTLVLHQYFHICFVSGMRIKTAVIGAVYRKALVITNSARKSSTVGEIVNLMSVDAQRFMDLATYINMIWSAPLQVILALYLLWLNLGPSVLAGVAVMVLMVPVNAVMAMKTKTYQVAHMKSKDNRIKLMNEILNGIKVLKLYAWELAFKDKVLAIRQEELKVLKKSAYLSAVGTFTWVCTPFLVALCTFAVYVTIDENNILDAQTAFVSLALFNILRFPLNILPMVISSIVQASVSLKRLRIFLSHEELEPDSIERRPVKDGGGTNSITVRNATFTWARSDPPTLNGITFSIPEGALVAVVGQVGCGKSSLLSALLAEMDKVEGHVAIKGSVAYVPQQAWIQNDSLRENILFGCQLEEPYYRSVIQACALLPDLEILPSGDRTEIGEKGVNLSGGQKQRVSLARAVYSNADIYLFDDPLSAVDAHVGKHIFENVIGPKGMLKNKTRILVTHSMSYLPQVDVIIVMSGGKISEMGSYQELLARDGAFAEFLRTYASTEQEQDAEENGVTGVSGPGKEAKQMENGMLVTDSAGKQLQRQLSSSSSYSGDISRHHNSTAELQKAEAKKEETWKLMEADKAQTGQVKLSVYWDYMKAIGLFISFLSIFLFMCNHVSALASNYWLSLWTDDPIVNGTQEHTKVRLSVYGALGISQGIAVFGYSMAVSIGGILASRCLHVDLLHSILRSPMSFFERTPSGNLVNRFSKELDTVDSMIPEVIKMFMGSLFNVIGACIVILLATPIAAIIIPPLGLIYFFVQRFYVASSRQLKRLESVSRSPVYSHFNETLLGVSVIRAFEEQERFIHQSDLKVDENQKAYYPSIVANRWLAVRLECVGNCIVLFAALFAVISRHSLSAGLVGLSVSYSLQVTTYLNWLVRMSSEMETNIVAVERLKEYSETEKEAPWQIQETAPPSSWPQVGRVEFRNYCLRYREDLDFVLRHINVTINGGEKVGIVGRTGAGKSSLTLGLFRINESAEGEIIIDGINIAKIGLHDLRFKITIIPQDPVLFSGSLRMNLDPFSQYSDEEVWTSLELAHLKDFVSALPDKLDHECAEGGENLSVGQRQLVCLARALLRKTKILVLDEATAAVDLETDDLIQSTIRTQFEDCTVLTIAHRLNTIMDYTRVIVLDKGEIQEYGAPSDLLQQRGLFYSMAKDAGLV
Put plainly: Calcein-AM retention assay, HEK293-MRP1 cells. Conditions: 22 µmol/L, DMSO control 52%. Format: cell-based.

The target in data set [2] is T1, MRP1. Put plainly: Rh123 dye efflux assay, HEK293-MRP1 cells. Format: cell-based. The conditions noted are these: 22 µmol/L of drug, DMSO control 39.6%. Here is the method:
Rhodamine123 (Rh123) drug efflux was carried out using a Multidrug-Resistance Direct Dye Efflux Activity Kit (Millipore, Darmstadt, Germany), with some modifications. […] Reading was carried out with a Beckman Coulter FC500 flow cytometer.

A further data set deals with HEK293-MRP1. The data set can be described thus: SRB cell viability, MRP1-overexpressing cells. Format: cell-based, human. Conditions: HEK293-MRP1 vs HEK293.
Source text: Parental HEK293 and M RP1- overexpressing HEK293- MRP1 isogenic cel ls were kind gifts of Dr. Susan Cole (Queen’s Universit y, Kingston, Ontario, Canada). […]
as §2
(§5) Cell viability and proliferation were ex amined using a s ulforhodamine B (SRB) assa y as […]
(§6) IC 50 values were calculat ed from si gmoidal dose-response cu rves gen erat ed b y at least two indepen dent ex periments , with each quadruplicate samples, using GraphPad Prism v.5.04 software (GraphPad Software, Inc, La J olla, CA). […]
(§7) (sham) or presence of compound(s). […]

Data set [3] deals with MDA-MB-231 triple-negative metastatic breast cancer cells. Put plainly: Antitumor activity in engrafted athymic mice. The format is in vivo, ATH490 athymic mice. The procedure: The animals were then immediately euthanized by carbon dioxide. […]
Supplementary Table S2. A typical treatment protocol of engrafted mice with CTR alone or in
combination with paclitaxel.
Treatment Dos a ge Frequ enc y Route Notes
Sham control Highest volume E v e r y 3-4 d a ys Intraperitoneal (I.P.) Vehicle onl y
Taxa 10 mg/kgb Once/week Intravenous ( I.V.)
CTR-17 (30) 30 mg/kg E v e r y 3-4 d a ys I. P .
CTR-20 (30) 30 mg/kg E v e r y 3-4 d a ys I. P .
Supplementary Table S 3: Antitumor activity of CTR -17 and CTR -20, alone or in combination
a Tax: paclitaxel. b mg per kg of bod y wei ght. c unit is mm 3. […]

For another data set, the system named is H69AR. Put plainly: SRB cell viability, multidrug-resistant cells. The conditions noted are these: Table S1; for Resistance (fold): H69AR vs SW-1271; for IC50: Homo sapiens, H69AR. Format: cell-based. Here is the method: (§8) Cell line authentication was carried out by Genetica DNA
as §2, §5, §6, §7

The test system of data set [4] is KB-C-2. The data set can be described thus: SRB cell viability, MDR1-overexpressing cells. Conditions: for Resistance (fold): KB-C-2 vs KB-C-1, Table S1. Format: cell-based, human.
The subject of another data set is KB-C-1. Put plainly: SRB cell viability, parental cells. The conditions noted are these: Homo sapiens, KBC-1; KB-C-1; Table S1. Format: cell-based. Here is the method:
(§9) human epidermoid carcinoma cell line and KB-C2, an isogenic MDR1- overexpressing drug-resistant cell line, were kindl y provided b y Dr. Amit K Tiwari, the Universit y of Toledo, OH. […]
as §8, §2, §5, §6, §7

The conditions of data set [5]: mouse, in vivo.
Procedure: Athymic mice engrafted with tumor cells were used to determine antitumor activity. […] When tumor size reached 5–6 mm in diameter (n = 4–5 per group), mice were randomly assigned into several groups and vehicle-treated or treated with drug(s). […] Animals were monitored for food and water consumption every day, and their body weights and tumor volumes were measured twice per week. Tumor volumes were measured with a digital caliper and were determined by the following formula: ½ length × width^2. Blood samples were collected via cardiac puncture and processed for ALT and AST measurements. The animals were then immediately euthanized by carbon dioxide. Tumors and vital organs (spleen, kidney, liver and lung) were harvested and fixed in 10% buffered formalin at 4 °C overnight before being processed for a paraffin embedding. The paraffin-embedded blocks were then sectioned to 4–5 µm thick. Each section was stained with haematoxylin and eosin (H&E).
In a further data set the test system is SW-1271. The data set can be described thus: SRB cell viability. The conditions noted are these: SW1271, Table S1. Format: cell-based. Here is the method: as §8, §2, §5, §6, §7
For data set [6], the system named is KB-C-2. Put plainly: SRB cell viability, MDR1-overexpressing cells. Format: cell-based. Conditions: Homo sapiens, KB-C2; KB-C-2; Table S1. The procedure:
as §9, §8, §2, §5, §6, §7

The next data set relates to MDA-MB-231TaxR. Put plainly: SRB cell viability, paclitaxel-resistant cells. The format is cell-based. Conditions: MDA-MB-231TaxR vs MDA-MB-231. The procedure:
as §1, §2, §3, §4

What is called IC50 is the concentration at which inhibition is half-maximal. With `CC1(C)CCC(CN2CCN(c3ccc(C(=O)NS(=O)(=O)c4ccc(NCC5CCOCC5)c([N+](=O)[O-])c4)c(Oc4cnc5[nH]ccc5c4)c3)CC2)=C(c2ccc(Cl)cc2)C1` [ABT-199], the IC50 in the data set with MDA-MB-231 amounted to 11600 ± 1130 nM.

With `CN(C)CC[C@H](CSc1ccccc1)Nc1ccc(S(=O)(=O)NC(=O)c2ccc(N3CCN(Cc4ccccc4-c4ccc(Cl)cc4)CC3)cc2)cc1[N+](=O)[O-]` [ABT-737], in the data set on MDA-MB-231, the IC50 was 28500 ± 3990 nM.

As to `COc1cc2c(c(OC)c1OC)-c1ccc(OC)c(=O)cc1[C@@H](NC(C)=O)CC2` [colchicine], the “calcein-AM retained in the cells” value on MRP1 [1] was 59%. On MRP1 [2], the Rh123 retention is recorded as 77.6%. For the same molecule, the “resistance of MRP1-overexpressing HEK293 cells” value in the data set on HEK293-MRP1 is given as “approximately 3.5 fold”.

Regarding `CC(=O)O[C@H]1C(=O)[C@@]2(C)[C@H]([C@H](OC(=O)c3ccccc3)[C@]3(O)C[C@H](OC(=O)[C@H](O)[C@@H](NC(=O)c4ccccc4)c4ccccc4)C(C)=C1C3(C)C)[C@]1(OC(C)=O)CO[C@@H]1C[C@@H]2O` [paclitaxel, reference compound], the “tumor volume Day 0” value in data set [3] (Tax 10 mg/kg i.v. once/week, CTR 30 mg/kg i.p. every 3-4 days, combinations Tax 5 + CTR 15 mg/kg once/week) was 91.84 mm3. Also, the “tumor volume Day 6” value in [3] (Tax 10 mg/kg i.v. once/week, CTR 30 mg/kg i.p. every 3-4 days, combinations Tax 5 + CTR 15 mg/kg once/week, sham 105.03) was 90.11 mm3. In addition, in data set [3] (same doses, sham 136.66), the “tumor volume Day 14” value turned out to be 94.66 mm3. In addition, in data set [3] (same doses, sham 162.62), the “tumor volume Day 17” value is recorded as 92.33 mm3. In addition, the “tumor volume Day 20” value in data set [3] (same doses, sham 192.69) was 81.66 mm3. For the same molecule, in data set [3] (same doses, sham 268.08), the “tumor volume Day 24” value is recorded as 95.61 mm3. Also, the “tumor volume Day 27” value in [3] (same doses, sham 426.87) is 139.41 mm3. Also, the “tumor volume Day 30” value in data set [3] (same doses, sham 557.66) is given as 170.36 mm3. The entries for the “Resistance (fold)” value in the data set on H69AR and with KB-C-2 [4] were 2.44 fold and 11.48 fold, respectively. For the same molecule, the IC50 with H69AR is 11 ± 2.6 nM; in the data set with KB-C-1 it was 2.01 ± 0.17 nM; with SW-1271, 4.51 ± 0.71 nM; with KB-C-2 [6], 23.08 ± 0.21 nM. In addition, in the data set on KB-C-2 [4], the “resistance ratio of KB-C-2 vs KB-C-1 cells” value worked out at 11.48 folds. Moreover, the “mice showing presence of hyaline in kidney” value in [5] is recorded as “one in four mice”. Further, the “resistance of MDA-MB-231TaxR” value in the data set with MDA-MB-231TaxR amounted to 114 times.

Regarding `CC[C@]1(O)C[C@@H]2CN(CCc3c([nH]c4ccccc34)[C@@](C(=O)OC)(c3cc4c(cc3OC)N(C)[C@H]3[C@@](O)(C(=O)OC)[C@H](OC(C)=O)[C@]5(CC)C=CCN6CC[C@]43[C@@H]65)C2)C1` [vinblastine], the “Resistance (fold)” value in the data set on H69AR was determined as 5.82 fold; in the data set with KB-C-2 [4], 15.20 fold. Also, the IC50 in the data set on H69AR turned out to be 10.2 ± 1.97 nM; with KB-C-1, 0.61 ± 0.09 nM; with SW-1271, 1.75 ± 0.21 nM; in the data set on KB-C-2 [6], 9.27 ± 3.22 nM. Also, the “resistance ratio of KB-C-2 vs KB-C-1 cells” value in the data set on KB-C-2 [4] is 15.20 folds.
